Laboratory results: patent US5434133A, “CNP analog peptides and their use” (Suntory Limited, priority 1991, dated 1995)
Entries after “also recorded” stand apart in the source; their conditions may differ. Where a SMILES comes first, the peptide text is derived from it. Bridges are numbered along the chain shown (N, C = ends). Where no end group is shown, it is not given here. [ ]: non-standard residue; d: D form. Cha = N[C@@H](CC1CCCCC1)C(=O)O

Assays:
[1] = system: cultured vascular smooth muscle cells (VSMC) derived from the aortas of rats; assay: cGMP producing activity in cultured VSMC (cGMP radioimmunoassay); type: cell-based, rat; settings: for cGMP producing activity (in words) / cGMP producing activity relative to α-hANP: rat VSMC; for cGMP producing activity (in words): comparison with CNP-22 or α-hANP; for cGMP producing activity (% increase for 1 μm): specific activity compared to 1 μm α-hANP (2000 fmol/400000 cells) = 100, peptide at 1 μm; for cGMP producing activity relative to α-hANP: times as high activity as α-hANP
Description: 1-1: Measurement of CGMP Producing Activity
The above-mentioned activity of compounds synthesized according to the present invention was measured by the methods of Hirata et al. (Biochem. Biophys. Res. Commun., 128, 538, 1985) and Scarborough et al. (J. Biol. Chem., 261, 12960, 1986). The cells used were cultured vascular smooth muscle cells (hereunder abbreviated as VSMC) derived from the aortas of rats. From 10^-9 to 10^-6 M of α-hANP or a 20 peptide of interest was incubated together with VSMC and the amount cGMP produced was measured by cGMP radioimmunoassay. Percent maximum reactivity for each peptide, with the value of maximum reactivity for α-hANP being taken as 100%, was used as an indicator of activity.

[2] = system: cultured vascular smooth muscle cells (VSMC) derived from the aortas of rats; assay: Cell growth suppressing activity: [3H] thymidine uptake (DNA synthesis inhibition) in VSMC; type: cell-based, rat; settings: for % Inhibition of 3H-thymidine uptake: 0.1 μm of each peptide, BSMC line stimulated with PDGF (20 ng/ml)
Description: 1-2: Measurement of Cell Growth Suppressing Activity
Cell growth suppressing activity was evaluated in accordance with the method of Kariya et al. (Atherosclerosis, 80, 143-147, 1990) by measuring the uptake of [^3 H] thymidine into cells as an indicator of percent DNA synthesis inhibition using the above-identified VSMC. Cells tuned to a stationary phase were incubated at 37° C. for 14 h with each sample added in the presence of 1% serum or 20 ng/ml of PDGF (platelet derived growth factor). Then, following the addition of 37 kBq/ml of [^3 H] thymidine, the incubation was continued for another 4 h and the radioactivity of [^3 H] thymidine incorporated into the cells was measured. The values of measurement were such that the uptake of [^3 H] thymidine for the case where only 1% serum or PDGF was added in the absence of peptide was taken as 100%, with the percent suppression due to the peptide addition being accordingly calculated.

| Compound | cGMP producing activity (in words) [1] | cGMP producing activity (% increase for 1 μm) [1] [%] | % Inhibition of 3H-thymidine uptake [2] [%] | cGMP producing activity relative to α-hANP [1] | suppression of DNA synthesis of rat VSMC (in words) ([2]; FIGS. 2, 3 and 4) | intensity of DNA synthesis / cell growth suppressing action relative to α-hANP ([2]; rat VSMC, compared with α-hANP) [times] |
| --- | --- | --- | --- | --- | --- | --- |
| CC[C@H](C)[C@@H]1NC(=O)[C@H](CCCNC(=N)N)NC(=O)[C@H](CC(=O)O)NC(=O)[C@H](CC(C)C)NC(=O)[C@H](CCCCN)NC(=O)[C@H](CC(C)C)NC(=O)CNC(=O)[C@H](Cc2ccccc2)NC(=O)[C@@H](N)CSSC[C@@H](C(=O)O)NC(=O)CNC(=O)[C@H](CC(C)C)NC(=O)CNC(=O)[C@H](CO)NC(=O)[C@H](CCSC)NC(=O)[C@H](CO)NC(=O)CNC1=O [Compound 5, CFGLKLDRIGSMSGLGC] (H-CFGLKLDRIGSMSGLGC-OH; disulfide 1-17) | strong cGMP producing activity at a comparable level to that exhibited by CNP-22 | 616 | 65 | – | – | – |
| GLSKGCpC1FGLKLDRIGSMSGLGC [Compound 16] | stronger activity than CNP-22 | 688 | – | – | – | – |
| CC[C@H](C)[C@@H]1NC(=O)[C@H](CCCNC(=N)N)NC(=O)[C@H](CC(=O)O)NC(=O)[C@H](CCSC)NC(=O)[C@H](CCCCN)NC(=O)CNC(=O)CNC(=O)[C@H](Cc2ccccc2)NC(=O)[C@@H](NC(=O)CNC(=O)[C@H](CCCCN)NC(=O)[C@H](CO)NC(=O)[C@H](CC(C)C)NC(=O)CN)CSSC[C@@H](C(=O)O)NC(=O)CNC(=O)[C@H](CC(C)C)NC(=O)CNC(=O)[C@H](CO)NC(=O)[C@H](CCSC)NC(=O)[C@H](CO)NC(=O)CNC1=O [Compound 11] (H-GLSKGCFGGKMDRIGSMSGLGC-OH; disulfide 6-22) | particularly marked; also recorded: lower in cGMP producing activity than the other one- and two-residue substituted derivatives | 71 | – | – | – | – |
| CC[C@H](C)[C@@H]1NC(=O)[C@H](CCCNC(=N)N)NC(=O)[C@H](CC(=O)O)NC(=O)[C@H](CC(C)C)NC(=O)[C@H](CCCCN)NC(=O)[C@H](CC(C)C)NC(=O)CNC(=O)[C@H](Cc2ccccc2)NC(=O)[C@@H](NC(=O)CNC(=O)[C@H](CCCCN)NC(=O)[C@H](CO)NC(=O)[C@H](CC(C)C)NC(=O)CN)CSSC[C@@H](C(=O)N[C@@H](CC(N)=O)C(=O)N[C@@H](CO)C(=O)N[C@@H](Cc2ccccc2)C(=O)N[C@@H](CCCNC(=N)N)C(=O)N[C@@H](Cc2ccc(O)cc2)C(=O)O)NC(=O)CNC(=O)[C@H](CC(C)C)NC(=O)CNC(=O)[C@H](CO)NC(=O)[C@H](CCSC)NC(=O)[C@H](CO)NC(=O)CNC1=O [Compound 3] | strong cGMP producing activity at a comparable level to that exhibited by CNP-22 | 667 | – | – | – | – |
| CC[C@H](C)[C@@H]1NC(=O)[C@H](CCCNC(=N)N)NC(=O)[C@H](CC(=O)O)NC(=O)[C@H](CC(C)C)NC(=O)[C@H](CCCCN)NC(=O)[C@H](CC(C)C)NC(=O)CNC(=O)[C@H](CC2CCCCC2)NC(=O)[C@@H](N)CSSC[C@@H](C(=O)N[C@@H](CC(N)=O)C(=O)N[C@@H](CO)C(=O)N[C@@H](Cc2ccccc2)C(=O)N[C@@H](CCCNC(=N)N)C(=O)N[C@@H](Cc2ccc(O)cc2)C(=O)O)NC(=O)CNC(=O)[C@H](CC(C)C)NC(=O)CNC(=O)[C@H](CO)NC(=O)[C@H](CCC(N)=O)NC(=O)[C@H](C)NC(=O)CNC1=O [Compound 27] (H-C[Cha]GLKLDRIGAQSGLGCNSFRY-OH; disulfide 1-17) | – | 523 | – | 4-6 times | – | – |
| CC[C@H](C)[C@@H]1NC(=O)[C@H](CCCNC(=N)N)NC(=O)[C@H](CC(=O)O)NC(=O)[C@H](CCSC)NC(=O)[C@H](CCCNC(=N)N)NC(=O)CNC(=O)CNC(=O)[C@H](Cc2ccccc2)NC(=O)[C@@H](NC(=O)[C@H](CO)NC(=O)[C@H](CO)NC(=O)[C@H](CCCNC(=N)N)NC(=O)[C@H](CCCNC(=N)N)NC(=O)[C@H](CC(C)C)NC(=O)[C@@H](N)CO)CSSC[C@@H](C(=O)O)NC(=O)CNC(=O)[C@H](CC(C)C)NC(=O)CNC(=O)[C@H](CO)NC(=O)[C@H](CCC(N)=O)NC(=O)[C@H](C)NC(=O)CNC1=O [Compound 1] | only a weak cGMP producing activity at a level comparable to α-hANP | 62 | – | – | – | – |
| CC[C@H](C)[C@@H]1NC(=O)[C@H](CCCNC(=N)N)NC(=O)[C@H](CC(=O)O)NC(=O)[C@H](CC(C)C)NC(=O)[C@H](CCCCN)NC(=O)[C@H](CC(C)C)NC(=O)CNC(=O)[C@H](Cc2ccccc2)NC(=O)[C@@H](N)CSSC[C@@H](C(=O)N[C@@H](CC(N)=O)C(=O)N[C@@H](CO)C(=O)N[C@@H](Cc2ccccc2)C(=O)N[C@@H](CCCNC(=N)N)C(=O)N[C@@H](Cc2ccc(O)cc2)C(=O)O)NC(=O)CNC(=O)[C@H](CC(C)C)NC(=O)CNC(=O)[C@H](CO)NC(=O)[C@H](CCC(N)=O)NC(=O)[C@H](C)NC(=O)CNC1=O [Compound 15, [Leu10, Lys11, Leu12] α-hANP (7-28)] (H-CFGLKLDRIGAQSGLGCNSFRY-OH; disulfide 1-17) | strong cGMP producing activity at a substantially comparable level to CNP-22 | 559 | 72 | 4-6 times | – | – |
| hCNP-53: human CNP-53, CNP-22 with 31 amino acid residues attached to the N-terminus (DLRVDTKSRAAWARLLQEHPNARKYKGANKKGLSKGCFGLKLDRIGSMSGLGC; disulfide 37-53 (inferred); ends not checked; UniProt P23582 74-126, looked up) [reference compound] | – | 458 | 71 | – | suppress the DNA synthesis of rat VSMC in a dose-dependent manner | 10 |
| CC[C@H](C)[C@@H]1NC(=O)[C@H](CCCNC(=N)N)NC(=O)[C@H](CC(=O)O)NC(=O)[C@H](CC(C)C)NC(=O)[C@H](CCCCN)NC(=O)[C@H](CC(C)C)NC(=O)CNC(=O)[C@H](Cc2ccccc2)NC(=O)[C@@H](NC(=O)[C@H](CO)NC(=O)[C@H](CO)NC(=O)[C@H](CCCNC(=N)N)NC(=O)[C@H](CCCNC(=N)N)NC(=O)[C@H](CC(C)C)NC(=O)[C@@H](N)CO)CSSC[C@@H](C(=O)O)NC(=O)CNC(=O)[C@H](CC(C)C)NC(=O)CNC(=O)[C@H](CO)NC(=O)[C@H](CCSC)NC(=O)[C@H](CO)NC(=O)CNC1=O [Compound 4] (H-SLRRSSCFGLKLDRIGSMSGLGC-OH; disulfide 7-23) | strong cGMP producing activity at a comparable level to that exhibited by CNP-22 | 663 | – | – | – | – |
| CC[C@H](C)[C@H](NC(=O)[C@H](CCCNC(=N)N)NC(=O)[C@H](CC(=O)O)NC(=O)[C@H](CC(C)C)NC(=O)[C@H](CCCCN)NC(=O)[C@H](CC(C)C)NC(=O)CNC(=O)[C@H](Cc1ccccc1)NC(=O)[C@H](CSC)NC(=O)CNC(=O)[C@H](CCCCN)NC(=O)[C@H](CO)NC(=O)[C@H](CC(C)C)NC(=O)CN)C(=O)NCC(=O)N[C@@H](CO)C(=O)N[C@@H](CCSC)C(=O)N[C@@H](CO)C(=O)NCC(=O)N[C@@H](CC(C)C)C(=O)NCC(=O)N[C@@H](CSC)C(=O)O [Compound 19, H-Gly-Leu-Ser-Lys-Gly-Cys(Me)-Phe-Gly-Leu-Lys-Leu-Asp-Arg-Ile-Gly-Ser-Met- Ser-Gly-Leu-Gly-Cys(Me)-OH] | hardly reduced the cGMP producing activity | 38 | – | – | – | – |
| CC[C@H](C)[C@@H]1NC(=O)[C@H](CCCNC(=N)N)NC(=O)[C@H](CC(=O)O)NC(=O)[C@H](CC(C)C)NC(=O)[C@H](CCCNC(=N)N)NC(=O)CNC(=O)CNC(=O)[C@H](Cc2ccccc2)NC(=O)[C@@H](NC(=O)CNC(=O)[C@H](CCCCN)NC(=O)[C@H](CO)NC(=O)[C@H](CC(C)C)NC(=O)CN)CSSC[C@@H](C(=O)O)NC(=O)CNC(=O)[C@H](CC(C)C)NC(=O)CNC(=O)[C@H](CO)NC(=O)[C@H](CCSC)NC(=O)[C@H](CO)NC(=O)CNC1=O [Compound 13] (H-GLSKGCFGGRLDRIGSMSGLGC-OH; disulfide 6-22) | – | 58 | – | – | – | – |
| pCNP-53: porcine CNP-53, CNP-22 with 31 amino acid residues attached to the N-terminus (DLRVDTKSRAAWARLLHEHPNARKYKGGNKKGLSKGCFGLKLDRIGSMSGLGC; disulfide 37-53 (inferred); ends not checked; UniProt P18104 74-126, looked up) [reference compound] | – | 524 | – | – | – | – |
| CC[C@H](C)[C@@H]1NC(=O)[C@H](CCCNC(=N)N)NC(=O)[C@H](CC(=O)O)NC(=O)[C@H](CCSC)NC(=O)[C@H](CCCNC(=N)N)NC(=O)[C@H](CC(C)C)NC(=O)CNC(=O)[C@H](Cc2ccccc2)NC(=O)[C@@H](NC(=O)CNC(=O)[C@H](CCCCN)NC(=O)[C@H](CO)NC(=O)[C@H](CC(C)C)NC(=O)CN)CSSC[C@@H](C(=O)O)NC(=O)CNC(=O)[C@H](CC(C)C)NC(=O)CNC(=O)[C@H](CO)NC(=O)[C@H](CCSC)NC(=O)[C@H](CO)NC(=O)CNC1=O [Compound 12] (H-GLSKGCFGLRMDRIGSMSGLGC-OH; disulfide 6-22) | – | 273 | – | – | – | – |
